Results taken from patent publication US9458198B1, “Cyclic peptide-based NPR-B agonists” (priority 2009, dated 2016).
pEC50: −log10 of the molar value. Read-outs that look alike come from different tables or passages of the source. Where a SMILES comes first, the peptide text is derived from it. Bridges are numbered along the chain shown (N, C = ends). [ ]: non-standard residue; d: D form. The star is where a group is joined. Hexanoyl = CCCCCC(=O)*

Tests used:
[1] = test system: human colon adenocarcinoma cells; details: 1 mM, within 24 h; cited from earlier work
NPR-B = target: T1, NPR-B (Homo sapiens, UniProt P20594); assay: NPR-B induced production of cyclic GMP in GTM-3 cells; format: cell-based
T1 construct: a functional assay using endogenously NPR-B expressing GTM-3 cells; endogenous in cells; host or cells: GTM-3 (transformed human trabecular meshwork cells)
T1 sequence (P20594 23-1047): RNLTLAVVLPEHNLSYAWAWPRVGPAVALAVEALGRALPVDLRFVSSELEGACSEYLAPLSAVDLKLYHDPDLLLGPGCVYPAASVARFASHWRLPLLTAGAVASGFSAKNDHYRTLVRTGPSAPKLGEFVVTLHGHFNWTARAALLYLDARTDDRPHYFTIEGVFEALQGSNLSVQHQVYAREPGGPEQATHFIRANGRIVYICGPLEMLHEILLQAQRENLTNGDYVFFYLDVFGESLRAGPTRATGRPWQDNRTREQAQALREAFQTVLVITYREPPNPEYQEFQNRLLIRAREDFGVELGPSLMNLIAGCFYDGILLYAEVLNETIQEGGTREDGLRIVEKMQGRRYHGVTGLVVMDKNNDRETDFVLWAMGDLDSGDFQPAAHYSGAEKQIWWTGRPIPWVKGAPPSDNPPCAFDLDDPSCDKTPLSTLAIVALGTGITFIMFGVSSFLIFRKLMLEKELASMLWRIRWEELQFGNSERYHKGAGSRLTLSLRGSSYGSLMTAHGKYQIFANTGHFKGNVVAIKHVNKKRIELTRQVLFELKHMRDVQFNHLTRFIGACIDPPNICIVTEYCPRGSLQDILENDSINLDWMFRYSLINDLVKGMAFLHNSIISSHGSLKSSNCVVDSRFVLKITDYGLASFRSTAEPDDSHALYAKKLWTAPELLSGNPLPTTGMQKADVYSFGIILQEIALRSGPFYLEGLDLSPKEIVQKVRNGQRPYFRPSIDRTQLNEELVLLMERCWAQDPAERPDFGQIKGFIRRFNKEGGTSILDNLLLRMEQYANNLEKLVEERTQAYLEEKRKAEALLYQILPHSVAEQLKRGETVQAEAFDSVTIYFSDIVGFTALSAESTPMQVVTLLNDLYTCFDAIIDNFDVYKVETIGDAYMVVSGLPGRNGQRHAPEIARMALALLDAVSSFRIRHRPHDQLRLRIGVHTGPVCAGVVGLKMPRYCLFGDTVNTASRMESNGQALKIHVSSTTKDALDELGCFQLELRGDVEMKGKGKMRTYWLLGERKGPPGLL
Method in brief: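 GTM-3 cells with endogenous NPR-B were washed and preincubated 15 min at room temperature in medium with 1 mM IBMX. Compounds were tested at final 45 μM to 20 nM; dose-dependent cGMP production gave Emax and EC50.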

[2] = Activity (group): NPR-B activation, EC50 and Emax (CNP = 100%), GTM-3 cells, group needs both EC50 and Emax criteria, checked A then B then C
[3] = GTM-3 cells, group needs both EC50 and Emax criteria, checked A then B then C, read-out: Activity (group): NPR-B activation, EC50 and Emax (CNP = 100%)

CC[C@H](C)[C@@H]1NC(=O)[C@H](CCCNC(=N)N)NC(=O)[C@H](CC(=O)O)NC(=O)[C@H](CCSC)NC(=O)[C@H](CCCNC(=N)N)NC(=O)CNC(=O)CNC(=O)[C@H](Cc2ccccc2)NC(=O)[C@@H](NC(=O)[C@H](CO)NC(=O)[C@H](CO)NC(=O)[C@H](CCCNC(=N)N)NC(=O)[C@H](CCCNC(=N)N)NC(=O)[C@H](CC(C)C)NC(=O)[C@@H](N)CO)CSSC[C@@H](C(=O)N[C@@H](CC(N)=O)C(=O)N[C@@H](CO)C(=O)N[C@@H](Cc2ccccc2)C(=O)N[C@@H](CCCNC(=N)N)C(=O)N[C@@H](Cc2ccc(O)cc2)C(=O)O)NC(=O)CNC(=O)[C@H](CC(C)C)NC(=O)CNC(=O)[C@H](CO)NC(=O)[C@H](CCC(N)=O)NC(=O)[C@H](C)NC(=O)CNC1=O [ANP, atrial natriuretic peptide]
decrease in cell number [1]: up to 97%

CCCCCC(=O)N[C@H]1CSSC[C@@H](C(N)=O)NC(=O)[C@H](CO)NC(=O)[C@H]([C@@H](C)CC)NC(=O)[C@H](CCCNC(=N)N)NC(=O)[C@H](CC(=O)O)NC(=O)[C@H]([C@@H](C)CC)NC(=O)[C@@H]2CCCN2C(=O)[C@H](CC(C)C)NC(=O)CNC(=O)[C@H](Cc2ccccc2)NC(=O)[C@@H](C)NC1=O [compound 88] (Hexanoyl-C[dA]FGLPIDRISC-NH2; disulfide 1-12)
pEC50 (NPR-B; [2]): > 6.00

CCCCCC(=O)N[C@H]1CSSC[C@@H](C(N)=O)NC(=O)[C@H](CO)NC(=O)[C@H]([C@@H](C)CC)NC(=O)[C@H](CCCNC(=N)N)NC(=O)[C@H](CC(=O)O)NC(=O)[C@H]([C@@H](C)CC)NC(=O)[C@@H]2CCCN2C(=O)[C@H](CC(C)C)NC(=O)CNC(=O)[C@H](Cc2ccccc2)NC(=O)[C@H]2CCCN2C1=O [compound 89] (Hexanoyl-C[dP]FGLPIDRISC-NH2; disulfide 1-12)
pEC50 (NPR-B; [2]): > 6.00

CCCCCC(=O)N[C@H]1CSSC[C@@H](C(N)=O)NC(=O)[C@H](CO)NC(=O)[C@H]([C@@H](C)CC)NC(=O)[C@H](CCCNC(=N)N)NC(=O)[C@H](CC(=O)O)NC(=O)[C@H](CC(C)C)NC(=O)[C@H](CCCCN)NC(=O)[C@H](CC(C)C)NC(=O)CNC(=O)[C@H](Cc2ccccc2)NC(=O)[C@H]2CCCN2C1=O [compound 90]
pEC50 (NPR-B; [3]): > 6.00

CCCCCC(=O)N[C@H]1CSSC[C@@H](C(N)=O)NC(=O)[C@H](CO)NC(=O)[C@H]([C@@H](C)CC)NC(=O)[C@H](CCCNC(=N)N)NC(=O)[C@H](CC(=O)O)NC(=O)[C@H](CC(C)C)NC(=O)[C@@H]2CCCN2C(=O)[C@H](CC(C)C)NC(=O)CNC(=O)[C@H](Cc2ccccc2)NC(=O)[C@H]2CCCN2C1=O [compound 91] (Hexanoyl-C[dP]FGLPLDRISC-NH2; disulfide 1-12)
pEC50 (NPR-B; [2]): > 6.00

CCCCCC(=O)N[C@H]1CSSC[C@@H](C(N)=O)NC(=O)[C@H](CO)NC(=O)[C@H]([C@@H](C)CC)NC(=O)[C@H](CCCNC(=N)N)NC(=O)[C@H](CC(=O)O)NC(=O)[C@H]([C@@H](C)CC)NC(=O)[C@H](CCCCN)NC(=O)[C@H](CC(C)C)NC(=O)CNC(=O)[C@H](Cc2ccccc2)NC(=O)[C@H]2CCCN2C1=O [compound 92] (Hexanoyl-C[dP]FGLKIDRISC-NH2; disulfide 1-12)
pEC50 (NPR-B; Activity (group): NPR-B activation, EC50 and Emax (CNP = 100%)): > 6.00

CCCCCC(=O)N[C@H]1CSSC[C@@H](C(N)=O)NC(=O)[C@H](CO)NC(=O)[C@H]([C@@H](C)CC)NC(=O)[C@H](CCCNC(=N)N)NC(=O)[C@H](CC(=O)O)NC(=O)[C@H](CC(C)C)NC(=O)[C@@H]2CCCN2C(=O)[C@H](CC(C)C)NC(=O)CNC(=O)[C@H](Cc2ccccc2)NC(=O)[C@@H](C)NC1=O [compound 93]
pEC50 (NPR-B; [2]): > 6.00

CCCCCC(=O)N[C@H]1CSSC[C@@H](C(N)=O)NC(=O)[C@H](CO)NC(=O)[C@H]([C@@H](C)CC)NC(=O)[C@H](CCCNC(=N)N)NC(=O)[C@H](CC(=O)O)NC(=O)[C@H](CC(C)C)NC(=O)[C@H](CCCCN)NC(=O)[C@H]([C@@H](C)O)NC(=O)CNC(=O)[C@H](Cc2ccccc2)NC(=O)[C@@H](C)NC1=O [compound 100] (Hexanoyl-C[dA]FGTKLDRISC-NH2; disulfide 1-12)
pEC50 (NPR-B; [3]): > 5.30

CCCCCC(=O)N[C@H]1CSSC[C@@H](C(N)=O)NC(=O)[C@H](CO)NC(=O)[C@H]([C@@H](C)CC)NC(=O)[C@H](CCCNC(=N)N)NC(=O)[C@H](CC(=O)O)NC(=O)[C@H](CC(C)C)NC(=O)[C@H](CCCCN)NC(=O)[C@H](C)NC(=O)CNC(=O)[C@H](Cc2ccccc2)NC(=O)[C@@H](C)NC1=O [compound 101] (Hexanoyl-C[dA]FGAKLDRISC-NH2; disulfide 1-12)
pEC50 (NPR-B; [3]): > 5.30

CCCCCC(=O)N[C@H]1CSSC[C@@H](C(N)=O)NC(=O)[C@H](CO)NC(=O)[C@H]([C@@H](C)CC)NC(=O)[C@H](CCCNC(=N)N)NC(=O)[C@H](CC(=O)O)NC(=O)[C@H](CC(C)C)NC(=O)[C@H](CCCCN)NC(=O)CNC(=O)CNC(=O)[C@H](Cc2ccccc2)NC(=O)[C@@H](C)NC1=O [compound 102] (Hexanoyl-C[dA]FGGKLDRISC-NH2; disulfide 1-12)
pEC50 (NPR-B; [3]): > 5.30

CCCCCC(=O)N[C@H]1CSSC[C@@H](C(N)=O)NC(=O)[C@H](CO)NC(=O)[C@H]([C@@H](C)CC)NC(=O)[C@H](CCCNC(=N)N)NC(=O)[C@H](CC(=O)O)NC(=O)[C@H](CC(C)C)NC(=O)[C@H](CCCCN)NC(=O)[C@H](CC(C)C)NC(=O)CNC(=O)[C@H](Cc2cccc(C(F)(F)F)c2)NC(=O)[C@@H](C)NC1=O [compound 105]
pEC50 (NPR-B; [3]): > 4.82

CCCCCC(=O)N[C@H]1CSSC[C@@H](C(N)=O)NC(=O)[C@H](CO)NC(=O)[C@H]([C@@H](C)CC)NC(=O)[C@H](Cc2ccc(C(=N)N)cc2)NC(=O)[C@H](CC(=O)O)NC(=O)[C@H](CC(C)C)NC(=O)[C@H](CCCCN)NC(=O)[C@H](CC(C)C)NC(=O)CNC(=O)[C@H](Cc2ccccc2)NC(=O)[C@@H](C)NC1=O [compound 112]
pEC50 (NPR-B; [3]): > 4.82

CCCCCC(=O)N[C@H]1CSSC[C@@H](C(N)=O)NC(=O)[C@H](CO)NC(=O)[C@H]([C@@H](C)CC)NC(=O)[C@H](CCNC(=N)N)NC(=O)[C@H](CC(=O)O)NC(=O)[C@H](CC(C)C)NC(=O)[C@H](CCCCN)NC(=O)[C@H](CC(C)C)NC(=O)CNC(=O)[C@H](Cc2ccccc2)NC(=O)[C@@H](C)NC1=O [compound 114]
pEC50 (NPR-B; [3]): > 4.82

CCCCCC(=O)N[C@H]1CSSC[C@@H](C(N)=O)NC(=O)[C@H](CO)NC(=O)C2(CCOCC2)NC(=O)[C@H](CCCNC(=N)N)NC(=O)[C@H](CC(=O)O)NC(=O)[C@H](CC(C)C)NC(=O)[C@H](CCCCN)NC(=O)[C@H](CC(C)C)NC(=O)CNC(=O)[C@H](Cc2ccccc2)NC(=O)[C@@H](C)NC1=O [compound 116]
pEC50 (NPR-B; [3]): > 4.82

CCCCCC(=O)N[C@H]1CSSC[C@@H](C(N)=O)NC(=O)[C@H](CO)NC(=O)C2(CCSCC2)NC(=O)[C@H](CCCNC(=N)N)NC(=O)[C@H](CC(=O)O)NC(=O)[C@H](CC(C)C)NC(=O)[C@H](CCCCN)NC(=O)[C@H](CC(C)C)NC(=O)CNC(=O)[C@H](Cc2ccccc2)NC(=O)[C@@H](C)NC1=O [compound 117]
pEC50 (NPR-B; [3]): > 4.82

CC[C@H](C)[C@@H]1NC(=O)[C@H](CCCNC(=N)N)NC(=O)[C@H](CC(=O)O)NC(=O)[C@H](CCSC)NC(=O)[C@H](CCCNC(=N)N)NC(=O)CNC(=O)CNC(=O)[C@H](Cc2ccccc2)NC(=O)[C@H](Cc2c[nH]cn2)NC(=O)[C@@H](NC(=O)[C@@H](N)CCSC)CSSC[C@@H](C(=O)N[C@@H](Cc2ccc(O)cc2)C(=O)N[C@@H](CCCNC(=N)N)C(N)=O)NC(=O)[C@H](CO)NC1=O [mini-ANP, reference compound] (H-MCHFGGRMDRISCYR-NH2; disulfide 2-13)
Emax (NPR-B; GTM3, GTM-3 cells, FIG. 2, CNP = 100%, read-out: Emax (maximum activation) relative to CNP): 0% | pEC50 (NPR-B; GTM-3 cells, FIG. 2, highest concentration 45 μM, read-out: EC50, cyclic GMP production): < 4.35
